Assay results reported in PMC6789589, “A Convenient Synthetic Method to Improve Immunogenicity of Mycobacterium tuberculosis Related T-Cell Epitope Peptides” (Vaccines, 2019).
Starred links: 1 amine or outer side, 2 acyl side, 3 side chain; linkers in the order of their positions; H or OH if unused. Positions of bridges follow the written chain, without caps; N, C: chain ends. Residues, ends and D or L forms follow the SMILES beside them. Chains are numbered I, II in the order given. *: point of attachment. X1 = O=C1CC([*:2])C(=O)N1CCCCCC(=O)[*:1]; Palmitoyl = CCCCCCCCCCCCCCCC(=O)*

What was measured:
MM6 cells = test: Intracellular localization by confocal laser scanning microscopy; assay type: cell-based, human; conditions: Cf-labelled peptides, 60 min; P/A/I mix 5 µM, A(P)I 2.5 µM, pal-A(P)I 0.5 µM
Procedure: Cellular uptake and localization were visualized by confocal microscopy. MM6 cells were seeded (10^5 cells/well) one day prior to treatment on cover glass containing 24-well plates (Sarstedt, Nümbrecht, Germany). Lysosomes were stained by LysoTracker^TM Deep Red (Invitrogen, Carlsbad, CA, USA) for 30 min, followed by incubation with Cf-labeled peptides for 60 min. Subsequently, nuclei were stained by Hoechst 33342 solution (Thermo Scientific, Waltham, MA, USA). After each step, cells were washed three times with serum-free medium. Cells were fixed by 4% paraformaldehyde for 15 min and mounted to microscopy slides with Mowiol® 4–88. Imaging was performed on a Zeiss LSM 710 system with 40× oil immersion objective. Images were processed with ZEN lite software (Zeiss, Oberkochen, Germany).
Localization of the compounds was visualized by confocal laser scanning microscopy in MM6 cells (Figure 2c). Cells were incubated with Cf-labelled peptides for 60 min; moreover, nuclei and lysosomes were also stained. The peptide concentrations for P/A/I mix, A(P)I, and pal-A(P)I were 5, 2.5, and 0.5 µM, respectively. As different compound concentrations and laser intensities were also used to visualize the compounds showing low or high internalization, the presented images give information about the intracellular localization and are not to be considered in a quantitative manner.

antigen presenting cells = test: Time course of cellular uptake by flow cytometry; assay type: cell-based; conditions: incubation 15 min to 16 h, FITC-positive cells and mean fluorescence intensity (Figure 3c)
Procedure: To further analyze the internalization of the compounds, the time course of the cellular uptake rate was measured by flow cytometry. […] The internalization rate of pal-A(P)I conjugate was very fast.
Figure 3 Detailed study on the cellular uptake by antigen presenting cells and the time course of internalization. Fluorescence intensity of compound treated cells was analyzed by flow cytometry (a) with or without trypsinization, and (b) in the presence or absence of trypan blue. No significant differences were observed after eliminating the fluorescent signal from adsorbed peptides or conjugates. (c) To study the time course of internalization, different incubation periods (15 min, 1 h, 3 h, 6 h, and 16 h) were applied, and the intracellular fluorescence intensity was measured. (d) The viability of compound-treated cells was compared to untreated control cells, and relative viabilities are presented. The viability of the control cells was always > 85% (results are represented as mean ± SEM, n = 3).

[1] = tested on: MonoMac6 human monocytes (MM6); test: Cellular uptake (internalization) by flow cytometry in MonoMac6; conditions: Cf-labelled compounds, MM6, 2.5 µM, 2 h, flow cytometry histograms (Figure S1)
Procedure: Internalization of the compounds was measured in the MonoMac6 (MM6) human monocytic cell line [31] and on murine bone marrow-derived macrophages (BMDMs). MonoMac6 cells were maintained as an adherent culture in RPMI-1640 supplemented with 10% heat-inactivated fetal calf serum (FCS) L-glutamine (2 mM) and gentamicin (35 μM) at 37 °C in a humidified atmosphere containing 5% CO2. […] For the assay, cells were treated with peptides at 2.5 µM final concentration and were incubated for 2 hours. After centrifugation (1000 rpm, 5 min) and washing with serum-free RPMI medium, supernatant was removed and 100 μL 0.25% trypsin was added to the cells. After 5 min incubation, 0.8 mL 10% FCS/HPMI medium was added, then cells were washed and re-suspended in 0.3 mL HPMI medium. The intracellular fluorescence intensity of the cells was measured on a BD LSR II flow cytometer (BD Biosciences, San Jose, CA, USA) on channel FITC (emission at λ = 505 nm) and data were analyzed with FACSDiva 5.0 software (BD Biosciences, San Jose, CA, USA). External fluorescence quenching was performed by adding 10 µL of 0.04% trypan blue solution. […]
treated with the compounds, then cells were analyzed by flow cytometry. To quantify viable cells, […]
negative control, RPMI medium was used (b) and the FITC-negative population was determined on this

[2] = tested on: human erythrocyte suspension; test: Hemolytic activity assay on human erythrocyte suspension; assay type: cell-based; conditions: 2% (v/v) human erythrocyte suspension, 2 h, 37 °C, 0.05–100 µM
Procedure: The hemolytic activity of the compounds was measured on human erythrocyte suspension. Cytotoxicity was assayed on murine BMDM. These two experiments are detailed in the Supplementary Information.
The hemolytic activity of the compounds was assayed as described previously. Briefly, peripheral blood from healthy volunteers was collected in vacuum tubes containing heparin (Li-heparin LH, VenoSafe) as anticoagulant. Tubes were centrifuged (1000 g, 5 min) and the pellet was washed three times with RPMI-1640 (culturing medium without phenol red). RPMI medium was added to the pellet to yield a final 2% (v/v) RBC suspension. […]
0.5%). […] After centrifugation (1000 g, 5 min), 100 µL of the supernatant was transferred to a flat-bottom microtiter plate and absorbance was measured at 414 nm using an ELISA plate reader (iEMS Reader, Labsystems). The percentage hemolysis was compared to a hemolytic control peptide (CM15, 200 μM) treated RBC and the concentration of peptide at which 50% hemolysis occurred (HC50 value) was determined. Compounds were measured in triplicates.
The cytotoxic effect of the compounds was measured on murine BMDMs. […] The precipitated purple crystals were dissolved in 100 μL DMSO, and after 10 minutes agitation, the absorbance was determined at λ = 540 nm and 620 nm using an ELISA plate reader (iEMS Reader, Labsystems). […]
1 Determined on 2% (v/v) human erythrocyte suspension. […]

[3] = Water solubility (observation); assay type: physicochemical

Row | Structure (SMILES) | intracellular localization (MM6 cells) | time course of internalization, in words (antigen presenting cells) | percentage of FITC-positive cells [1] [%] | Hemolytic activity HC50 ± sd [2] [µM] | water solubility [3]
1 | CC[C@H](C)[C@H](NC(=O)CNC(=O)[C@H](Cc1ccccc1)NC(=O)[C@@H](N)Cc1ccccc1)C(=O)N[C@@H](CC(N)=O)C(=O)N[C@H](C(=O)N[C@H](C(=O)N1CCC[C@H]1C(=O)N[C@H](C(=O)N[C@@H](C)C(=O)N[C@@H](CSC1CC(=O)N(CCCCCC(=O)NCCCC[C@H](NC(=O)[C@@H](NC(=O)[C@H](CC(C)C)NC(=O)[C@H](CCCNC(=N)N)NC(=O)[C@@H](NC(=O)[C@H](CC(N)=O)NC(=O)[C@H](CC(N)=O)NC(=O)[C@H](C)NC(=O)[C@@H](NC(=O)[C@H](CC(C)C)NC(=O)[C@H](CCCCN)NC(C)=O)C(C)C)[C@@H](C)O)[C@@H](C)O)C(=O)N2CCC[C@H]2C(=O)N[C@@H](CCCCN)C(=O)NCC(=O)NCC(=O)N[C@@H](CC(C)C)C(=O)N[C@H](C(=O)N[C@@H](CC(=O)O)C(=O)N[C@H](C(=O)N[C@@H](C)C(=O)N2CCC[C@H]2C(=O)N[C@@H](Cc2c[nH]cn2)C(=O)N[C@@H](CCC(N)=O)C(=O)N[C@H](C(=O)N[C@@H](CO)C(=O)N[C@@H](CO)C(=O)N[C@H](C(N)=O)C(C)C)[C@@H](C)CC)[C@@H](C)CC)[C@@H](C)CC)C1=O)C(N)=O)[C@@H](C)CC)[C@@H](C)CC)[C@@H](C)O (some centres unmarked) [A(P)I, KLVANNTRL-TKmal(FFGINTIPIAC)PKG-GLIDIAPHQISSV] (I: Ac-KLVANNTRLTKPKGGLIDIAPHQISSV-NH2 / II: H-FFGINTIPIAC-NH2; linker I:11-II:11 via X1; N-terminus and C-terminus assumed) | colocalization with lysosomes that was even more pronounced | significantly slower than the internalization of pal-A(P)I | 21.5 |  | 
2 | CCCCCCCCCCCCCCCC(=O)N[C@@H](CCCCN)C(=O)N[C@@H](CC(C)C)C(=O)N[C@H](C(=O)N[C@@H](C)C(=O)N[C@@H](CC(N)=O)C(=O)N[C@@H](CC(N)=O)C(=O)N[C@H](C(=O)N[C@@H](CCCNC(=N)N)C(=O)N[C@@H](CC(C)C)C(=O)N[C@H](C(=O)N[C@@H](CCCCNC(=O)CCCCCN1C(=O)CC(SC[C@H](NC(=O)[C@H](C)NC(=O)[C@@H](NC(=O)[C@@H]2CCCN2C(=O)[C@@H](NC(=O)[C@@H](NC(=O)[C@H](CC(N)=O)NC(=O)[C@@H](NC(=O)CNC(=O)[C@H](Cc2ccccc2)NC(=O)[C@@H](N)Cc2ccccc2)[C@@H](C)CC)[C@@H](C)O)[C@@H](C)CC)[C@@H](C)CC)C(N)=O)C1=O)C(=O)N1CCC[C@H]1C(=O)N[C@@H](CCCCN)C(=O)NCC(=O)NCC(=O)N[C@@H](CC(C)C)C(=O)N[C@H](C(=O)N[C@@H](CC(=O)O)C(=O)N[C@H](C(=O)N[C@@H](C)C(=O)N1CCC[C@H]1C(=O)N[C@@H](Cc1c[nH]cn1)C(=O)N[C@@H](CCC(N)=O)C(=O)N[C@H](C(=O)N[C@@H](CO)C(=O)N[C@@H](CO)C(=O)N[C@H](C(N)=O)C(C)C)[C@@H](C)CC)[C@@H](C)CC)[C@@H](C)CC)[C@@H](C)O)[C@@H](C)O)C(C)C (some centres unmarked) [pal-A(P)I, palmitoyl-KLVANNTRL-TKmal(FFGINTIPIAC)PKG-GLIDIAPHQISSV] (I: Palmitoyl-KLVANNTRLTKPKGGLIDIAPHQISSV-NH2 / II: H-FFGINTIPIAC-NH2; linker I:11-II:11 via X1) |  |  |  | > 100 | very low water solubility
